From patent US11726082B2, “Screening method of drug candidates for treating disease using interaction between calcium and phosphatidylinositol phosphate” (Gachon University of Industry—Academic Cooperation …, priority 2017, dated 2023)

Key:
Akt protein [1] = assay: Western blotting of Akt protein phosphorylation in insulin-treated HepG2 cells; type: cell-based, human; settings: PA 24 hours, 100 nM insulin 15 minutes, compared with insulin alone
Procedure: First, male C57BL/6 mice at 8 weeks were divided into the fasted group wherein the mice were fasted for 16 hours and the refed group wherein the mice were fasted for 16 hours and then fed for 4 hours. Each group was sub-divided into the high fat diet group (HFD) and the normal diet group (chow). The liver cells were extracted from the raised mice by the same manner and under the same conditions as described in Example 1. The extracted liver cells were lysed in a lysis buffer containing phosphatase (Sigma-Aldrich, USA) and protease inhibitor (Sigma-Aldrich, USA). Proteins extracted from 2 to 3 mg of the liver tissue were homogenized by using a tissue homogenizer (TissuLyser, Qiagen, USA) for 1.5 minutes at a frequency of 1/30 sec. The homogenized lysate was centrifuged at 12,000 rpm for 15 minutes and the supernatant was obtained. The amount of the extracted protein was quantified by using a protein assay kit (Bio-Rad Laboratories, USA), and at this time BSA was used as a standard sample. 3 mg of the protein was mixed with 6× loading buffer, followed by electrophoresis using 10% SDS-PAGE gel. The electrophoresed protein was transferred onto a polyvinylidene fluoride (PVDF) membrane by using a transfer buffer at 4° C. with 120 V for 1.5 hours. The PVDF membrane on which the protein was transferred was pretreated with a blocking buffer prepared by mixing 5% skim milk with TBS buffer (TBS-T, pH 7.6) supplemented with Tween 20 for 30 minutes, and the membrane was washed with TBS-T. The washed membrane was added with the antibody against Akt (Cell Signaling Technology, USA), Akt(T308) (Cell Signaling Technology, USA), Akt(S473) (Cell Signaling Technology, USA), FOXO3A (Cell Signaling Technology, USA), FOXO3A(S253) (Cell Signaling Technology, USA), GSK-3β (Cell Signaling Technology, USA) or GSK-3β(S9) (Cell Signaling Technology, USA) protein as a primary antibody, followed by reaction at 4° C. for 12 hours. At this time, the antibody against actin (Santa Cruz Biotechnology, USA) protein was used for the control group. Upon completion of the reaction, the secondary antibody corresponding to the primary antibody was added thereto, followed by reaction at room temperature for 30 minutes. The PVDF membrane was washed with TBS-T buffer three times. The washed PVDF membrane was added with ECL solution (Thermo Scientific, USA), followed by image observation.
To investigate the changes in insulin sensitivity when insulin was added to the fatty liver cell model constructed in vitro, the phosphorylations of those proteins that were involved in insulin signal transduction were examined. PA was added to the human HepG2 cells prepared in Example 3, followed by reaction for 24 hours. […]

human HepG2 cells [2] = assay: Intracellular calcium concentration with Fluo-3 AM in insulin resistance induced cells; type: cell-based; settings: PA 0, 100, 300 or 500 μM, 24 hours
Procedure: First, male C57BL/6 mice at 8 weeks (Orient Bio, Korea) were raised in an animal facility of Lee Gil Ya Cancer and Diabetes Institute (Gachon University, Korea). Particularly, the mice were raised in a sterile chamber at the temperature of 23±1° C. with 12 hr/12 hr light/dark cycle, and free dietary environment. At this time, the mice were divided into the fasted group wherein the mice were fasted for 16 hours and the refed group wherein the mice were fasted for 16 hours and then fed for 4 hours. Each group was sub-divided into the high fat diet group (HFD) and the normal diet group (chow). The high fat diet group (HFD) mice were fed with diet containing 60% fat, while the normal diet group (chow) mice were fed with diet containing 10% fat. 8 weeks later, the mice were anesthetized and the liver was perfused by using buffer 1 (142 mM NaCl, 6.7 mM KCl, 10 mM HEPES and 2.5 mM EGTA, pH 7.4). Buffer 1 above was replaced with buffer 2 (0.5 mg/Mg […], 66.7 mM NaCl, 6.7 mM KCl, 10 mM HEPES and 4.8 mM CaCl, pH 7.6), and then the perfused liver was extracted. The extracted liver was washed and degraded by using Percoll cushion gradient. The degraded cells were suspended and cultured in Hepatozyme-SFM (Gibco-BRL USA) culture medium supplemented with 10% FBS and 1% antibiotics and antifungal agent. […] The mounted cells were analyzed using a fluorescence microscope (Zeiss Axioplan 2). […]

human HepG2 cells [3] = assay: Intracellular calcium dynamics with Fura-2 AM in insulin resistance induced cells; type: cell-based; settings: PA
Procedure: First, human HepG2 cells were cultured in DMEM (Dulbecco's Modified Eagle Medium) supplemented with 10% fetal bovine serum (FBS), 25 mM glucose, 2 mM L-glutamine, 100 U/Ml of penicillin and 100 μg/Ml of streptomycin. At this time, the culture was performed in a 37° C., 5% CO2 incubator. The cultured cells were distributed in a culture plate at the density of 5.0×10^5 cells/well, followed by further culture for overnight. Palmitic acid (PA) was added to the plate at the concentration of 0, 100, 300 or 500 μM, followed by reaction for 24 hours. Then, the concentration of calcium was investigated by using Fluo-3 AM according to the same conditions and procedures as described in Example 1, and the results are shown in FIG. 2A and FIG. 2B.
Intracellular calcium dynamics was confirmed in the fatty liver cell model constructed in vitro by inducing insulin resistance. At this time, the experiment was performed by the same manner under the same conditions as described in Example 3 except that Fura-2 AM was used instead of Fluo-3 AM.

Akt protein [4] = assay: Western blot of Akt activity with C2-Akt fusion protein and PI3K co-treated with PTEN or SHIP2; type: cell-based; settings: cells with C2-Akt fusion protein and PI3K vectors co-treated with PTEN or SHIP2
Procedure: Particularly, the experiment was performed by the same manner under the same conditions as described in Example 2 except that the vector expressing the C2-Akt fusion protein and the vector expressing PI3K protein were co-treated with PTEN or SHIP2 and the antibody against Akt (Cell Signaling Technology, USA), Akt(T308) (Cell Signaling Technology, USA), Akt(S473) (Cell Signaling Technology, USA), PI3K (Cell Signaling Technology, USA), PTEN (Cell Signaling Technology, USA) or SHIP2 (Upstate Biotechnology, USA) protein was used as the primary antibody.

| Molecule | Akt protein phosphorylation (Akt protein [1]) | concentration of calcium in the cytoplasm (human HepG2 cells [2]) | intracellular calcium concentration (human HepG2 cells [3]) | Akt protein activity (Akt protein [4]) |
| --- | --- | --- | --- | --- |
| CCCCCCCCCCCCCCCC(=O)O [PA, Palmitic acid] | significantly inhibited | increased | significantly increased | – |
| SHIP2: co-treated with the C2-Akt and PI3K vectors (protein, UniProt O15357 1-1258, looked up) Phosphatidylinositol …: MASACGAPGPGGALGSQAPSWYHRDLSRAAAEELLARAGRDGSFLVRDSESVAGAFALCVLYQKHVHTYRILPDGEDFLAVQTSQGVPVRRFQTLGELIGLYAQPNQGLVCALLLPVEGEREPDPPDDRDASDGEDEKPPLPPRSGSTSISAPTGPSSPLPAPETPTAPAAESAPNGLSTVSHDYLKGSYGLDLEAVRGGASHLPHLTRTLATSCRRLHSEVDKVLSGLEILSKVFDQQSSPMVTRLLQQQNLPQTGEQELESLVLKLSVLKDFLSGIQKKALKALQDMSSTAPPAPQPSTRKAKTIPVQAFEVKLDVTLGDLTKIGKSQKFTLSVDVEGGRLVLLRRQRDSQEDWTTFTHDRIRQLIKSQRVQNKLGVVFEKEKDRTQRKDFIFVSARKREAFCQLLQLMKNKHSKQDEPDMISVFIGTWNMGSVPPPKNVTSWFTSKGLGKTLDEVTVTIPHDIYVFGTQENSVGDREWLDLLRGGLKELTDLDYRPIAMQSLWNIKVAVLVKPEHENRISHVSTSSVKTGIANTLGNKGAVGVSFMFNGTSFGFVNCHLTSGNEKTARRNQNYLDILRLLSLGDRQLNAFDISLRFTHLFWFGDLNYRLDMDIQEILNYISRKEFEPLLRVDQLNLEREKHKVFLRFSEEEISFPPTYRYERGSRDTYAWHKQKPTGVRTNVPSWCDRILWKSYPETHIICNSYGCTDDIVTSDHSPVFGTFEVGVTSQFISKKGLSKTSDQAYIEFESIEAIVKTASRTKFFIEFYSTCLEEYKKSFENDAQSSDNINFLKVQWSSRQLPTLKPILADIEYLQDQHLLLTVKSMDGYESYGECVVALKSMIGSTAQQFLTFLSHRGEETGNIRGSMKVRVPTERLGTRERLYEWISIDKDEAGAKSKAPSVSRGSQEPRSGSRKPAFTEASCPLSRLFEEPEKPPPTGRPPAPPRAAPREEPLTPRLKPEGAPEPEGVAAPPPKNSFNNPAYYVLEGVPHQLLPPEPPSPARAPVPSATKNKVAITVPAPQLGHHRHPRVGEGSSSDEESGGTLPPPDFPPPPLPDSAIFLPPSLDPLPGPVVRGRGGAEARGPPPPKAHPRPPLPPGPSPASTFLGEVASGDDRSCSVLQMAKTLSEVDYAPAGPARSALLPGPLELQPPRGLPSDYGRPLSFPPPRIRESIQEDLAEEAPCLQGGRASGLGEAGMSAWLRAIGLERYEEGLVHNGWDDLEFLSDITEEDLEEAGVQDPAHKRLLLDTLQLSK | – | – | – | reduced |
